In ChEMBL document CHEMBL1131512, “A new antitumor agent: methyl sulfonium perchlorate of echinomycin” (Bioorg Med Chem Lett, 1998):
Values after ≈ are worked out from the molar mass of the structure shown.

Key:
P388 [1] = experiment: In vitro cytotoxicity against P388 tumor cell lines.; assay type: functional, cell-based; conditions: Mus musculus
B16 [2] = experiment: In vitro cytotoxicity against B16 tumor cell lines.; assay type: functional, cell-based; conditions: Mus musculus
SNU-16 = experiment: In vitro cytotoxicity against SNU16 tumor cell lines.; assay type: functional, cell-based; conditions: Homo sapiens
P388 [3] = experiment: In vivo antitumor activity was determined against P388 tumor cell lines in mice at dose of 0.0625 mg/kg administered intraperitoneally.; assay type: functional, Mus musculus; conditions: route intraperitoneal
B16 [4] = experiment: In vivo antitumor activity was determined against B16 tumor cell lines in mice at dose of 0.03125 mg/kg administered intraperitoneally.; assay type: functional, Mus musculus; conditions: route intraperitoneal
B16 [5] = experiment: In vivo antitumor activity was determined against B16 tumor cell lines in mice at dose of 0.125 mg/kg administered intraperitoneally. (p<0.05); assay type: functional, Mus musculus; conditions: route intraperitoneal
P388 [6] = experiment: In vivo antitumor activity was determined against P388 tumor cell lines in mice at dose of 0.25 mg/kg administered intraperitoneally. (p<0.05); assay type: functional, Mus musculus; conditions: route intraperitoneal
B16 [7] = experiment: In vivo antitumor activity was determined against B16 tumor cell lines in mice at dose of 0.0625 mg/kg administered intraperitoneally. (p<0.05); assay type: functional, Mus musculus; conditions: route intraperitoneal
B16 [8] = experiment: In vivo antitumor activity was determined against B16 tumor cell lines in mice at dose of 1 mg/kg administered intraperitoneally. (p<0.05); assay type: functional, Mus musculus; conditions: route intraperitoneal
P388 [9] = experiment: In vivo antitumor activity was determined against P388 tumor cell lines in mice at dose of 0.125 mg/kg administered intraperitoneally. (p<0.05); assay type: functional, Mus musculus; conditions: route intraperitoneal
P388 [10] = experiment: In vivo antitumor activity was determined against P388 tumor cell lines in mice at dose of 0.03125 mg/kg administered intraperitoneally.; assay type: functional, Mus musculus; conditions: route intraperitoneal
P388 [11] = experiment: In vivo antitumor activity was determined against P388 tumor cell lines in mice at dose of 1 mg/kg administered intraperitoneally (p<0.05); assay type: functional, Mus musculus; conditions: route intraperitoneal
B16 [12] = experiment: In vivo antitumor activity was determined against B16 tumor cell lines in mice at dose of 0.25 mg/kg administered intraperitoneally. (p<0.05); assay type: functional, Mus musculus; conditions: route intraperitoneal
B16 [13] = experiment: In vivo antitumor activity was determined against B16 tumor cell lines in mice at dose of 1 mg/kg administered intraperitoneally.; assay type: functional, Mus musculus; conditions: route intraperitoneal
P388 [14] = experiment: In vivo antitumor activity was determined against P388 tumor cell lines in mice at dose of 1 mg/kg administered intraperitoneally.; assay type: functional, Mus musculus; conditions: route intraperitoneal
P388 [15] = experiment: In vivo antitumor activity was determined against P388 tumor cell lines in mice at dose of 0.125 mg/kg administered intraperitoneally.; assay type: functional, Mus musculus; conditions: route intraperitoneal
P388 [16] = experiment: In vivo antitumor activity was determined against P388 tumor cell lines in mice at dose of 0.25 mg/kg administered intraperitoneally.; assay type: functional, Mus musculus; conditions: route intraperitoneal

SMILES | IC50 (P388 [1]) [ng/mL] | IC50 (B16 [2]) [ng/mL] | IC50 (SNU-16) [ng/mL] | MST (B16 [13]) [days] | MST (P388 [14]) [days] | further results
CSC1[C@H]2C(=O)N(C)[C@@H](C(C)C)C(=O)OC[C@@H](NC(=O)c3cnc4ccccc4n3)C(=O)N[C@@H](C)C(=O)N(C)[C@@H](C[S+]1C)C(=O)N(C)[C@@H](C(C)C)C(=O)OC[C@@H](NC(=O)c1cnc3ccccc3n1)C(=O)N[C@@H](C)C(=O)N2C.[Cl-] (some centres undefined) [listing 1 of 2 here] | 0.0081 | 0.09 | 0.0049 |  |  | 
CSC1[C@H]2C(=O)N(C)[C@@H](C(C)C)C(=O)OC[C@@H](NC(=O)c3cnc4ccccc4n3)C(=O)N[C@@H](C)C(=O)N(C)[C@@H](C[S+]1C)C(=O)N(C)[C@@H](C(C)C)C(=O)OC[C@@H](NC(=O)c1cnc3ccccc3n1)C(=O)N[C@@H](C)C(=O)N2C.[Cl-] (some centres undefined) [listing 2 of 2 here] |  |  |  |  |  | MST (P388 [3]): 32 days; MST (B16 [4]): 23 days; MST (B16 [5]): 25 days; MST (P388 [6]): 34 days; MST (B16 [7]): 24 days; MST (B16 [8]): 28 days; MST (P388 [9]): 33 days; MST (P388 [10]): 31 days; MST (P388 [11]): 35 days; MST (B16 [12]): 26 days
CC(C)[C@H]1C(=O)OC[C@@H](NC(=O)c2cnc3ccccc3n2)C(=O)N[C@@H](C)C(=O)N(C)[C@H]2CSC([S+](C)[O-])[C@@H](C(=O)N1C)N(C)C(=O)[C@H](C)NC(=O)[C@H](NC(=O)c1cnc3ccccc3n1)COC(=O)[C@H](C(C)C)N(C)C2=O (some centres undefined) [listing 1 of 2 here] | 8.8 (≈ 7.88 nM) | 310 (≈ 277 nM) | 540 (≈ 483 nM) |  |  | 
CC(C)[C@H]1C(=O)OC[C@@H](NC(=O)c2cnc3ccccc3n2)C(=O)N[C@@H](C)C(=O)N(C)[C@H]2CSC([S+](C)[O-])[C@@H](C(=O)N1C)N(C)C(=O)[C@H](C)NC(=O)[C@H](NC(=O)c1cnc3ccccc3n1)COC(=O)[C@H](C(C)C)N(C)C2=O (some centres undefined) [listing 2 of 2 here] |  |  |  | 20 | 27 | 
CC(C)[C@H]1C(=O)OC[C@@H](NC(=O)c2cnc3ccccc3n2)C(=O)N[C@@H](C)C(=O)N(C)[C@H]2C[S+]([O-])C([S+](C)[O-])[C@@H](C(=O)N1C)N(C)C(=O)[C@H](C)NC(=O)[C@H](NC(=O)c1cnc3ccccc3n1)COC(=O)[C@H](C(C)C)N(C)C2=O (some centres undefined) [listing 1 of 2 here] | 98 (≈ 86.5 nM) | 1700 (≈ 1500 nM) | 590 (≈ 521 nM) |  |  | 
CC(C)[C@H]1C(=O)OC[C@@H](NC(=O)c2cnc3ccccc3n2)C(=O)N[C@@H](C)C(=O)N(C)[C@H]2C[S+]([O-])C([S+](C)[O-])[C@@H](C(=O)N1C)N(C)C(=O)[C@H](C)NC(=O)[C@H](NC(=O)c1cnc3ccccc3n1)COC(=O)[C@H](C(C)C)N(C)C2=O (some centres undefined) [listing 2 of 2 here] |  |  |  | 17 | 31 | 
CC(C)[C@H]1C(=O)OC[C@@H](NC(=O)c2cnc3ccccc3n2)C(=O)N[C@@H](C)C(=O)N(C)[C@H]2CSC(S(C)(=O)=O)[C@@H](C(=O)N1C)N(C)C(=O)[C@H](C)NC(=O)[C@H](NC(=O)c1cnc3ccccc3n1)COC(=O)[C@H](C(C)C)N(C)C2=O (some centres undefined) [listing 1 of 2 here] | 60 (≈ 52.9 nM) | 820 (≈ 724 nM) | 1100 (≈ 971 nM) |  |  | 
CC(C)[C@H]1C(=O)OC[C@@H](NC(=O)c2cnc3ccccc3n2)C(=O)N[C@@H](C)C(=O)N(C)[C@H]2CSC(S(C)(=O)=O)[C@@H](C(=O)N1C)N(C)C(=O)[C@H](C)NC(=O)[C@H](NC(=O)c1cnc3ccccc3n1)COC(=O)[C@H](C(C)C)N(C)C2=O (some centres undefined) [listing 2 of 2 here] |  |  |  | 17 | 25 | 
COc1cccc2c1C(=O)c1c(O)c3c(c(O)c1C2=O)C[C@@](O)(C(=O)CO)C[C@@H]3O[C@H]1C[C@H](N)[C@H](O)[C@H](C)O1 [DOXORUBICIN] | 9.6 (≈ 17.7 nM) | 540 (≈ 994 nM) | 160 (≈ 294 nM) |  |  | 
CS[C@H]1SC[C@H]2C(=O)N(C)[C@@H](C(C)C)C(=O)OC[C@@H](NC(=O)c3cnc4ccccc4n3)C(=O)N[C@@H](C)C(=O)N(C)[C@@H]1C(=O)N(C)[C@@H](C(C)C)C(=O)OC[C@@H](NC(=O)c1cnc3ccccc3n1)C(=O)N[C@@H](C)C(=O)N2C [ECHINOMYCIN] | 0.043 (≈ 0.039 nM) | 6.5e-05 (≈ 5.9e-05 nM) | 0.00016 (≈ 0.000145 nM) | 21 | 27 | MST (P388 [3]): 32 days; MST (B16 [4]): 23 days; MST (B16 [5]): 25 days; MST (P388 [15]): 33 days; MST (B16 [7]): 24 days; MST (P388 [16]): 26 days; MST (P388 [10]): 31 days; MST (B16 [12]): 23 days
